Structures can show the parent of a compound that is named as a salt.
What was measured:
[1] = target: PI3Kα (complex of human p110α and human p85α) (Homo sapiens (Human), UniProt P42336); assay: PI3Kα kinase assay (HTRF-based PI3K inhibition assay); format: biochemical; details: for inhibition at 0.93 µM: 0.93 μM compound, read-out: PI3K alpha average % Inhibition at 0.93 μM; for IC50: 10 μM ATP, 10 μM PIP2, 20 min at 22° C., read-out: average IC50 in the PI3K alpha biochemical assay;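 for all read-outs here: PIP3 product detected by HTRF, reading resonance energy transfer from Europium-labeled anti-GST antibody to Streptavidin-APC, as displacement of biotinylated PIP3 tracer from the GST-PH domain complex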
Sequence of PI3Kα (complex of human p110α and human p85α) (P42336 whole entry, the tested form may be a part): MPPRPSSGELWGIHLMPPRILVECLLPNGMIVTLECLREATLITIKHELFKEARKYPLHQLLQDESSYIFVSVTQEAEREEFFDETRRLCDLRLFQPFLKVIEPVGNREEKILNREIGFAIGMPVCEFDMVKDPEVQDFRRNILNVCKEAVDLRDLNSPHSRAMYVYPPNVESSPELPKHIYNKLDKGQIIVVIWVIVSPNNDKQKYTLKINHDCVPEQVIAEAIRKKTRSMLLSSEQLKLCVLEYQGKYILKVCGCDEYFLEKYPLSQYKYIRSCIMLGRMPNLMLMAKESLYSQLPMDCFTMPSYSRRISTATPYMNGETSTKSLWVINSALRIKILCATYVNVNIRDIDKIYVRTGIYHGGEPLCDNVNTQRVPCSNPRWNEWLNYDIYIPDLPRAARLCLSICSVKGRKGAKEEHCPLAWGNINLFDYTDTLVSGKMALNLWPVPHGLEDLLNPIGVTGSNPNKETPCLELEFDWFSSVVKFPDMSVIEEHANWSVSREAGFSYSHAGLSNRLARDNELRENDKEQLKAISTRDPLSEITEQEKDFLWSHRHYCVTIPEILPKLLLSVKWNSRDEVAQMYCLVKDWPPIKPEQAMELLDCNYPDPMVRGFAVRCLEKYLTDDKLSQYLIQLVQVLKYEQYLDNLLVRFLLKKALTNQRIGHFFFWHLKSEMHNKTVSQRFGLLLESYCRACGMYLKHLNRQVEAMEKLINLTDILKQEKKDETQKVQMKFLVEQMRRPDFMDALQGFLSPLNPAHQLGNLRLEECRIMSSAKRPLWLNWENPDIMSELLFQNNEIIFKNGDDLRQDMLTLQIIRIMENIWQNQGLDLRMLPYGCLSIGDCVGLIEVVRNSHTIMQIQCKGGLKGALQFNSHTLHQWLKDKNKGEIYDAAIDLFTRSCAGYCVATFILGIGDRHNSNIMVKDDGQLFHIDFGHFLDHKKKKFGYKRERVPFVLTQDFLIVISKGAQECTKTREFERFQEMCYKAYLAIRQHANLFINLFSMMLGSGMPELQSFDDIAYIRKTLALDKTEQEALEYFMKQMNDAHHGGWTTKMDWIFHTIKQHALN
Sequence of PI3Kα (complex of human p110α and human p85α) (P27986 whole entry partner, the tested form may be a part): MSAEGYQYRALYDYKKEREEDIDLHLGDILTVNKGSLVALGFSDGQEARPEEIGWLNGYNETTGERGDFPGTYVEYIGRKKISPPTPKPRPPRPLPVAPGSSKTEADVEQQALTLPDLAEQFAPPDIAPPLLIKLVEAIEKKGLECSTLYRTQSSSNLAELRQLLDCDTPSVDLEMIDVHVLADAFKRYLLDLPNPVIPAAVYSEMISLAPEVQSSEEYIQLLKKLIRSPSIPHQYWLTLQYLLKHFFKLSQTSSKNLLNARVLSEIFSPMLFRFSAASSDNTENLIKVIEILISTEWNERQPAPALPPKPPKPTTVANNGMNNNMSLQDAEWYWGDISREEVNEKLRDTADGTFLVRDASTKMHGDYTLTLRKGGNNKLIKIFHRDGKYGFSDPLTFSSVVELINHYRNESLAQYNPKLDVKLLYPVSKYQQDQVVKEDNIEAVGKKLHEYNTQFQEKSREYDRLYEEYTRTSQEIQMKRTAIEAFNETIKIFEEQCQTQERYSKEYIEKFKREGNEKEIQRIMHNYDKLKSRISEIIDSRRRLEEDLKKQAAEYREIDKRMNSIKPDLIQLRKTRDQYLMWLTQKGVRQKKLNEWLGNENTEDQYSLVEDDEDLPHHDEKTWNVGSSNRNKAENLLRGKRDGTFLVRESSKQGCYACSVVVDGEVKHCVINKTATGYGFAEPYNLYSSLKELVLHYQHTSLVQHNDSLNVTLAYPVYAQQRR
Source text: (§1) Determination of % Inhibition and IC50 Values of Compounds in PI3Kα Kinase Assay
PI3Kα inhibitory activity of compounds of the present invention was quantified employing the HTRF-based PI3K inhibition assay as described below.
(§2) As reagents for the kinase reaction itself and the quantification of the reaction product, the PI3-Kinase HTRF Assay kit from Millipore (#33-017) was used. With this kit the phosphatidylinositol 3,4,5-trisphosphate (PIP3) generated in the kinase reaction is detected by displacement of a biotinylated ligand from an energy transfer complex consisting of a Europium-labeled anti-GST monoclonal antibody, a GST-tagged PH domain, biotinylated PIP3 and Streptavidin-Allophycocyanin (APC).
For the assay 50 nL of a 80-fold concentrated solution of the test compound in DMSO was pipetted into a black low volume 384-well microtiter plate (Greiner Bio-One, Frickenhausen, Germany), 3 μL of a solution of PI3Kα and phosphatidylinositol-4,5-bisphosphate (PIP2, 13.8 μM=> final conc. in 4 μl reaction volume=10 μM) in 1× reaction buffer (exact composition not disclosed by the vendor) were added and the mixture was incubated for 15 min at 22° C. to allow pre-binding of the test compounds to the enzyme before the start of the kinase reaction. The amount of PI3Kα was chosen to have the enzyme reaction in the linear range and depended on the activity of the individual lot, typical concentrations in assay were in the range of 90 ng/mL. Then the kinase reaction was started by the addition of 1 μL of a solution of adenosine triphosphate (ATP, 40 μM=> final conc. in the 4 μL assay volume is 10 μM) in reaction buffer and the resulting mixture was incubated for a reaction time of 20 min at 22° C.
The reaction was stopped by the addition of 1 μL of an stop solution (containing the biotinylated PIP3 used as a tracer), then 1 μL detection mix (containing a Europium-labeled anti-GST monoclonal antibody, a GST-tagged PH domain, and Streptavidin-Allophycocyanin) was added and resulting mixture was incubated 3 h at 22° C. to allow the formation of complexes between the detection reagents and either the PIP3 generated in the kinase reaction, or the biotinylated PIP3 added with the stop solution. Subsequently, the amount of energy transfer complex consisting of a Europium-labeled anti-GST monoclonal antibody, a GST-tagged PH domain, biotinylated PIP3 and Streptavidin-Allophycocyanin (APC) was evaluated by measurement of the resonance energy transfer from the Europium-labeled anti-GST monoclonal antibody to the Streptavidin-Allophycocyanin. Therefore, the fluorescence emissions at 620 nm and 665 nm after excitation at 350 nm were measured using a TR-FRET reader, e.g., a Pherastar (BMG Labtechnologies, Offenburg, Germany) or a Viewlux (Perkin-Elmer). The ratio of the emissions at 665 nm and at 622 nm was taken as the measure for the amount of biotinylated PIP3 bound to the GST-tagged PH domain, which is negatively correlated with the amount of PIP3 generated.

[2] = target: PI3Kβ (complex of human p110β and human p85α) (Homo sapiens (Human), UniProt P42338); assay: PI3Kβ kinase assay (HTRF-based PI3K inhibition assay); format: biochemical; details: for inhibition at 0.93 µM: 0.93 μM compound, read-out: PI3K beta average % Inhibition at 0.93 μM; for IC50: 10 μM ATP, 10 μM PIP2, 20 min at 22° C., read-out: average IC50 in the PI3K beta biochemical assay; for PI3K beta average IC50/PI3K alpha average IC50: ratio of beta IC50 to alpha IC50;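 for all read-outs here: Kinase-made PIP3 detected by HTRF, displacing biotinylated PIP3 tracer from a complex of Europium anti-GST antibody, GST-fused PH domain and Streptavidin-APC, read as Europium-to-APC energy transfer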
Sequence of PI3Kβ (complex of human p110β and human p85α) (P42338 whole entry, the tested form may be a part): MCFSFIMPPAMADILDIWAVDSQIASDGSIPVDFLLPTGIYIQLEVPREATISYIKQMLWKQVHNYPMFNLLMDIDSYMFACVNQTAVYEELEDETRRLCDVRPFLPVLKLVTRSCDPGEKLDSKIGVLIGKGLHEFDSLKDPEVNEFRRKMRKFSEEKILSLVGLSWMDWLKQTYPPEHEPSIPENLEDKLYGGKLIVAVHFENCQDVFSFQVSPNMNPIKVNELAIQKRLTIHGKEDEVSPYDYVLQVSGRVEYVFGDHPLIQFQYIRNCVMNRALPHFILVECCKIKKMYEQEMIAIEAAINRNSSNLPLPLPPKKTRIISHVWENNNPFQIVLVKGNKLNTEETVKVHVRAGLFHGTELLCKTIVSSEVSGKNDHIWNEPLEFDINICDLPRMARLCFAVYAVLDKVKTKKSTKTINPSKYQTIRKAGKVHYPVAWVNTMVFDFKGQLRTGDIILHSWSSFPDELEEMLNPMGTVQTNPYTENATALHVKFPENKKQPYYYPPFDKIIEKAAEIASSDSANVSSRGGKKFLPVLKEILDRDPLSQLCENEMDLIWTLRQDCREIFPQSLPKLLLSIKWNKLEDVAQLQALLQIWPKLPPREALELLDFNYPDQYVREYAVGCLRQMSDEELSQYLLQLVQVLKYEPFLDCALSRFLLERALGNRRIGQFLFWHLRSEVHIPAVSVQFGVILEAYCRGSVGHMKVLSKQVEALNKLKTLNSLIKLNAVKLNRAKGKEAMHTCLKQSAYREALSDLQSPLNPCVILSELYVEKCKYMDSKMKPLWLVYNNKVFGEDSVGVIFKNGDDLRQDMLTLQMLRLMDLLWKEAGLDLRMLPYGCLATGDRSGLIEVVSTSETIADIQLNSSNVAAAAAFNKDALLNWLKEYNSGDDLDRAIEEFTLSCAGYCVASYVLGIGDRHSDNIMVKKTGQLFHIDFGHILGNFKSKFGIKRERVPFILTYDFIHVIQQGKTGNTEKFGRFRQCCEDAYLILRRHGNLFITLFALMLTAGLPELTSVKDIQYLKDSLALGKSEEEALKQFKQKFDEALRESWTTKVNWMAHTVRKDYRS
Sequence of PI3Kβ (complex of human p110β and human p85α) (P27986 whole entry partner, the tested form may be a part): as the sequence (P27986 whole entry partner, the tested form may be a part) above
Source text: as §1
PI3Kα inhibitory activity of compounds of the present invention was quantified employing the HTRF based PI3K inhibition assay as described below.
as §2
For the assay 50 nL of a 80-fold concentrated solution of the test compound in DMSO was pipetted into a black low volume 384-well microtiter plate (Greiner Bio-One, Frickenhausen, Germany), 3 μl of a solution of PI3Kβ and phosphatidylinositol-4,5-bisphosphate (PIP2, 13.8 μM=> final conc. in 4 μl reaction volume=10 μM) in 1× reaction buffer (exact composition not disclosed by the vendor) were added and the mixture was incubated for 15 min at 22° C. to allow pre-binding of the test compounds to the enzyme before the start of the kinase reaction. The amount of PI3Kβ was chosen to have the enzyme reaction in the linear range and depended on the activity of the individual lot, typical concentrations in assay were in the range of 120 ng/mL. Then the kinase reaction was started by the addition of 1 μL of a solution of adenosine triphosphate (ATP, 40 μM=> final conc. in the 4 μl assay volume is 10 μM) in reaction buffer and the resulting mixture was incubated for a reaction time of 20 min at 22° C.
The reaction was stopped by the addition of 1 μL of an stop solution (containing the biotinylated PIP3 used as a tracer). Then 1 μL detection mix (containing a Europium-labeled anti-GST monoclonal antibody, a GST-tagged PH domain, and Streptavidin-Allophycocyanin) was added and resulting mixture was incubated for 3 h at 22° C. to allow the formation of complexes between the detection reagents and either the PIP3 generated in the kinase reaction, or the biotinylated PIP3 added with the stop solution. Subsequently the amount of energy transfer complex consisting of a Europium-labeled anti-GST monoclonal antibody, a GST-tagged PH domain, biotinylated PIP3 and Streptavidin-Allophycocyanin (APC) was evaluated by measurement of the resonance energy transfer from the Europium-labeled anti-GST monoclonal antibody to the Streptavidin-Allophycocyanin. Therefore, the fluorescence emissions at 620 nm and 665 nm after excitation at 350 nm were measured using a TR-FRET reader, e.g., a Pherastar (BMG Labtechnologies, Offenburg, Germany) or a Viewlux (Perkin-Elmer). The ratio of the emissions at 665 nm and at 622 nm were taken as the measure for the amount of biotinylated PIP3 bound to the GST-tagged PH domain, which is negatively correlated with the amount of PIP3 generated.

SMILES | inhibition at 0.93 µM [1] | IC50 [1] | inhibition at 0.93 µM [2] | IC50 [2] | PI3K beta average IC50/PI3K alpha average IC50 [2]
COc1c(OCC(O)CN2CCOCC2)ccc2c1N=C(NC(=O)c1cnc(N)nc1)N1CCN=C21 (centres unmarked) [Example 25, 2-Amino-N-{8-[2-hydroxy-3-(morpholin-4-yl)propoxy]-7-methoxy-2,3-dihydroimidazo[1,2-c]quinazolin-5-yl}pyrimidine-5-carboxamide] | 92.7% | < 0.01 µM | 93.3% | < 0.01 µM | 8.30
COc1c(OC[C@H](O)CN2CC3CCC(C2)O3)ccc2c1N=C(NC(=O)c1cnc(N)nc1)N1CCN=C21 [Example 28, 2-Amino-N-(8-{[(2R)-2-hydroxy-3-(8-oxa-3-azabicyclo[3.2.1]oct-3-yl)propyl]oxy}-7-methoxy-2,3-dihydroimidazo[1,2-c]quinazolin-5-yl)pyrimidine-5-carboxamide dihydrochloride] | 102% | < 0.01 µM | 102% | < 0.01 µM | –
COc1c(OC[C@H](O)CN2CCOCC2)ccc2c1N=C(NC(=O)c1cnc3[nH]cnc3c1)N1CCN=C21 [Example 30, N-(8-{[(2R)-2-Hydroxy-3-(morpholin-4-yl)propyl]oxy}-7-methoxy-2,3-dihydroimidazo[1,2-c]quinazolin-5-yl)-3H-imidazo[4,5-b]pyridine-6-carboxamide] | 110% | < 0.01 µM | 108% | 0.01 to 0.05 µM | 8.83
COc1c(OC[C@H](O)CN2CCCC2)ccc2c1N=C(NC(=O)c1cncs1)N1CCN=C21 [Example 36, N-(8-{[(2R)-2-Hydroxy-3-(pyrrolidin-1-yl)propyl]oxy}-7-methoxy-2,3-dihydroimidazo[1,2-c]quinazolin-5-yl)-1,3-thiazole-5-carboxamide] | 92.4% | < 0.01 µM | 93.9% | 0.01 to 0.05 µM | 3.41
COc1c(OC[C@H](O)CN2CCCCC2)ccc2c1N=C(NC(=O)c1cncs1)N1CCN=C21 [Example 37, N-(8-{[(2R)-2-Hydroxy-3-(piperidin-1-yl)propyl]oxy}-7-methoxy-2,3-dihydroimidazo[1,2-c]quinazolin-5-yl)-1,3-thiazole-5-carboxamide] | 103% | < 0.01 µM | 93.7% | 0.01 to 0.05 µM | 2.98
COc1c(OC[C@H](O)CN2CCOCC2)ccc2c1N=C(NC(=O)c1sc(N)nc1C)N1CCN=C21 [Example 39, 2-Amino-N-(8-{[(2R)-2-hydroxy-3-(morpholin-4-yl)propyl]oxy}-7-methoxy-2,3-dihydroimidazo[1,2-c]quinazolin-5-yl)-4-methyl-1,3-thiazole-5-carboxamide] | 110% | < 0.01 µM | 122% | < 0.01 µM | 5.32
COc1c(OC[C@H](O)CN2CCCC2)ccc2c1N=C(NC(=O)c1cnco1)N1CCN=C21 [Example 40, N-(8-{[(2R)-2-Hydroxy-3-(pyrrolidin-1-yl)propyl]oxy}-7-methoxy-2,3-dihydroimidazo[1,2-c]quinazolin-5-yl)-1,3-oxazole-5-carboxamide] | 88% | > 0.05 µM | 72.7% | > 0.05 µM | –

More lines, now with the values ahead:

inhibition at 0.93 µM [1] | IC50 [1] | inhibition at 0.93 µM [2] | IC50 [2] | PI3K beta average IC50/PI3K alpha average IC50 [2] | SMILES
97.9% | < 0.01 µM | 102% | 0.01 to 0.05 µM | 5.52 | COc1c(OC[C@H](O)CN2C[C@@H](C)O[C@@H](C)C2)ccc2c1N=C(NC(=O)c1cnc(N)nc1)N1CCN=C21 [Example 27, 2-amino-N-[8-({(2R)-3-[(2R,6S)-2,6-dimethylmorpholin-4-yl]-2-hydroxypropyl}oxy)-7-methoxy-2,3-dihydroimidazo[1,2-c]quinazolin-5-yl]pyrimidine-5-carboxamide]
102% | < 0.01 µM | 106% | < 0.01 µM | 6.75 | COc1c(OC[C@H](O)CN(C)C)ccc2c1N=C(NC(=O)c1cnc(N)nc1)N1CCN=C21 [Example 29, 2-Amino-N-(8-{[(2R)-3-(dimethylamino)-2-hydroxypropyl]oxy}-7-methoxy-2,3-dihydroimidazo[1,2-c]quinazolin-5-yl)pyrimidine-5-carboxamide]
96.1% | < 0.01 µM | 95.5% | 0.01 to 0.05 µM | 5.91 | COc1c(OC[C@H](O)CN2CCOCC2)ccc2c1N=C(NC(=O)c1cncs1)N1CCN=C21 [Example 32, N-(8-{[(2R)-2-Hydroxy-3-(morpholin-4-yl)propyl]oxy}-7-methoxy-2,3-dihydroimidazo[1,2-c]quinazolin-5-yl)-1,3-thiazole-5-carboxamide]
94.2% | < 0.01 µM | 97.1% | 0.01 to 0.05 µM | 7.21 | COc1c(OC[C@H](O)CN2C[C@@H](C)O[C@@H](C)C2)ccc2c1N=C(NC(=O)c1cncs1)N1CCN=C21 [Example 34, N-[8-({(2R)-3-[(2R,6S)-2,6-dimethylmorpholin-4-yl]-2-hydroxypropyl}oxy)-7-methoxy-2,3-dihydroimidazo[1,2-c]quinazolin-5-yl]-1,3-thiazole-5-carboxamide]
109% | < 0.01 µM | 102% | 0.01 to 0.05 µM | 6.30 | COc1c(OC[C@H](O)CN2CCC2)ccc2c1N=C(NC(=O)c1cncs1)N1CCN=C21 [Example 35, N-(8-{[(2R)-3-(Azetidin-1-yl)-2-hydroxypropyl]oxy}-7-methoxy-2,3-dihydroimidazo[1,2-c]quinazolin-5-yl)-1,3-thiazole-5-carboxamide]
92.8% | < 0.01 µM | 95.1% | < 0.01 µM | 5.64 | COc1c(OC[C@H](O)CN2CCCC2)ccc2c1N=C(NC(=O)c1scnc1C)N1CCN=C21 [Example 38, N-(8-{[(2R)-2-Hydroxy-3-(pyrrolidin-1-yl)propyl]oxy}-7-methoxy-2,3-dihydroimidazo[1,2-c]quinazolin-5-yl)-4-methyl-1,3-thiazole-5-carboxamide]
95.7% | < 0.01 µM | 99.3% | 0.01 to 0.05 µM | 5.83 | COc1c(OC[C@H](O)CN(C(C)C)C(C)C)ccc2c1N=C(NC(=O)c1cncs1)N1CCN=C21 [Example 41, N-(8-{[(2R)-3-(dipropan-2-ylamino)-2-hydroxypropyl]oxy}-7-methoxy-2,3-dihydroimidazo[1,2-c]quinazolin-5-yl)-1,3-thiazole-5-carboxamide]

Source: patent publication US8895549B2, “Aminoalcohol substituted 2,3-dihydroimidazo[1,2-c]quinazoline derivatives useful for treating hyper-proliferative disorders and diseases associated with angiogenesis” (Bayer Intellectual Property GmbH, priority 2010, dated 2014)
